Source: patent US8697379B2, “Lysosomotropic inhibitors of acid ceramidase” (MUSC Foundation for Research Development, priority 2008, dated 2014)
“And” between values parts separate entries of the source, which are not always exact repeats. Equal entries are not always repeated. Where two headings read alike, the source gives them in different places.

What was measured:
L929 cells = assay: TNF-α induced PGE2 release from L929 mouse fibroblast cells; type: cell-based; conditions: TNF-α treated L929 mouse fibroblast cells; preliminary data
lysosomes [1] = conditions: previously studied non-Class E inhibitor; Bielawska et al. 2008; cited from earlier work
acid ceramidase (ACDase) [2] = biological target: T1, acid ceramidase (ACDase) (Homo sapiens, UniProt Q13510); assay: Cellular activity of ACDase: MCF-7 cells treated with drug, then lysed and assayed; type: cell-based; set-up: C16-Cer as a substrate and MCF-7 cell lysate as an enzymatic source; endogenous in cells; host or cells: MCF-7 cell lysate; conditions: 10 μM, 2 h of treatment
T1 sequence (Q13510 22-142 limits assumed): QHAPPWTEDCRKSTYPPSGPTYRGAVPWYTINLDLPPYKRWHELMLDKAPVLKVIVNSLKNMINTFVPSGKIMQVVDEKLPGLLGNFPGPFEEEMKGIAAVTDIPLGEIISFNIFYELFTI
T1 sequence (Q13510 143-395 limits assumed): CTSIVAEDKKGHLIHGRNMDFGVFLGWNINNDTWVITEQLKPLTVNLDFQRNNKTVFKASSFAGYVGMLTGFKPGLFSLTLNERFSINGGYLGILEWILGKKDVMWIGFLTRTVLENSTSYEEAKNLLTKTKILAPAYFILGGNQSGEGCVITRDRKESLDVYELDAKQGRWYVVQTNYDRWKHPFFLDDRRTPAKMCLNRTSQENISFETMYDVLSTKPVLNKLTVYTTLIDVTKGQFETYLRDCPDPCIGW
Experimental: (§1) Effects of the inhibitors on the cellular activity of ACDase were determined using cell lysate from the cultured cells previously treated with increasing concentrations of drugs. For this type of assay, the drugs are allowed to enter the cell for a specific time, then cell lysates were prepared by homogenization and assays performed as described above. Effects on endogenous Cers and Sph were determined using LC-MS/MS analysis as previously described. See Bielawska et al., Bioorg. Med. Chem., 16, 1032-1045 (2008); and Bielawska et al., Methods, 39, 82-91 (2006). Final results were expressed as the level of the particular sphingolipid (SPL)/phospholipids (Pi) determined from the Bligh and Dyer lipid extract and expressed as SPLs/Pi (pmol/nmol).

[3] = test system: MCF-7 breast carcinoma cells; assay: MTT cell viability assay in MCF-7 breast carcinoma cells; type: cell-based, human
Experimental: Class E compounds were administrated to cells capable of undergoing differentiation in amounts effective to induce differentiation of several cancer cell lines: MCF-7, PPC1, SCC14a, A549, and J3DR4. Cell viability assay was performed by the 3-(4,5-Dimethylthiazol-2-yl)-2,5-diphenyltetrazolium bromide (MTT) assay. Cells were seeded into 96-well plate overnight before treatment with increasing drug concentrations (0-100 μM) as previously described. See Hansen et al., J. Immunol. Methods, 119, 203-210 (1989). After treatment, plates were incubated for an additional period of time (24-72 h). Changes in cell numbers were determined and expressed as a percentage of the untreated controls.
Class E prodrugs were administrated to MCF-7 cells capable of undergoing differentiation in amounts effective to induce differentiation. Cell viability assay was performed by the MTT assay. Cells were seeded into 96-well plate overnight before treatment with increasing drug concentrations (0-100 μM) as previously described. See Hansen et al., J. Immunol. Methods, 119, 203-210 (1989). After treatment, plates were incubated for an additional period of time (24-72 h). Changes in cell numbers were determined and expressed as a percentage of the untreated controls. 50% inhibitory concentrations were determined by comparing cell number changes in prodrug treated samples to control samples.

[4] = test system: cellular sphingolipids (Cn-Cer, Sph, S1P) in MCF-7 cells; assay: Endogenous ceramide, Sph and S1P levels in MCF-7 cells by LC-MS/MS; type: cell-based, human
Experimental: as §1

lysosomes [5] = assay: Lysosomal stability by FACS analysis with LYSOTRACKER red; type: cell-based; conditions: for lysosomal stability: 30 μM
Experimental: Effects of Class E inhibitors on ACDase protein degradation were determined by Western blotting as previously described. See Bielawska et al., Bioorg. Med. Chem., 16, 1032-1045 (2008); Liu et al., Front. Biosci., 13, 2293-2298 (2008); and Holman et al., Cancer Chemother. Pharmacol., 61, 231-242 (2008). Lysosomal stability and mitochondrial stability were determined by FACS analysis using LYSOTRACKER™ red (Molecular Probes, Eugene, Oreg., United States of America) or JC-1 mitochondrial dye (Molecular Probes, Eugene, Oreg., United States of America) as previously described. See Holman et al., Cancer. Chemother. Pharmacol., 61, 231-242 (2008).

acid ceramidase (ACDase) [6] = biological target: T1, acid ceramidase (ACDase); assay: In vitro ACDase activity assay, release of radioactive palmitic acid from [3H]C16-Cer in MCF-7 cell lysate; type: biochemical; set-up: C16-Cer as a substrate and MCF-7 cell lysate as an enzymatic source; endogenous in cells; host or cells: MCF-7 cell lysate
Experimental: The in vitro assay was carried out according to a previously described procedure (see Zeidan et al., J. Biol. Chem., 281, 24695-24703 (2006)) using [^3H] C16-Cer as a substrate and MCF-7 cell lysate as an enzymatic source. Briefly, cell lysate was prepared under acidic conditions (i.e., pH 4.5, 50 mM sodium acetate, 5 mM magnesium chloride, 1 mM EDTA and 0.5% Triton X-100), and protein level was determined using BCA protein assay kit (Pierce, Rockford, Ill., United States of America). ACDase activity was determined based on the amount of the released radioactive palmitic acid counted by LS 6500 multi-purpose scintillation counter (Beckman Coulter, Inc., Fullerton, Calif., United States of America). The results are presented as percentage of control.

Caspase 3/7 = assay: Apo-ONE Homogeneous Caspase 3/7 assay in MCF-7 cells; type: cell-based, human; conditions: 24 h incubation
Experimental: The apoptotic effect of LCL464 was also investigated in MCF-7 cells via its effect on Caspase 3/7, a group of cysteine proteases that mediate execution. This can be activated by apoptotic signals from both death receptor and intracellular/mitochondrial pathways. Briefly, MCF-7 cells were seeded at a density of 5×10^3/50 μL/well overnight in 96 well plates. Then cells were treated with vehicle or diluted LCL464. After 8 and 24 hours incubation, Caspase 3/7 activities were measured using the Apo-ONE Homogeneous Caspase 3/7 Assay Kit according to the manufacturer's instructions (Promega, Madison, Wis., United States of America). LCL464 causes a dose dependent induction of apoptosis following 24 h incubation, causing increase of Caspase 3/7 activities to 140% and 200% for 10 μM and 20 μM, respectively.

[7] = Breakdown of prodrugs under the assay conditions; type: in vitro ADME; conditions: under the various assay conditions; preliminary
[8] = 48 hours of treatment, Example 6, read-out: IC50, MCF-7 cell growth (50% of surviving cells as compared to the control)
[9] = MCF-7 cells, MTT, 24 hours, Example 7, hydrochloride, read-out: IC50/24 h
[10] = 10 μM, 5 hours, and time course

With `CCCCCCCCCCCCCC(=O)N[C@H](C)[C@@H](O)c1ccccc1` [D-MAPP, D-erythro-2-(N-myristolyamino)-1-phenyl-1-propanol] the “release of PGE2” value (L929 cells) was “inhibited”.
For `CCCCCCCCCCCCCCN[C@H](CO)[C@H](O)c1ccc([N+](=O)[O-])cc1` [LCL204, (1R,2R)-2-N-(tetradecylamino)-1-(4′-nitrophenyl)-1,3-propandiol], the “lysosomal stability as compared to the control (permanent destabilization)” value (lysosomes [1]) is given as roughly 90% and the “ACDase inhibition at the cellular level” value (acid ceramidase (ACDase) [2]) is given as “about 35%”.
For `O=C(CCCCCCCCCCCN1CCOCC1)N[C@H](CO)[C@H](O)c1ccc([N+](=O)[O-])cc1` [LCL449, (1R,2R)-2-[N-(12′-{1″-morpholine}-dodecanoyl)-amino]-1-(4″-nitrophenyl)-1,3-propandiol], the IC50 [3, 8] was 49.9 µM.
In the case of `CN(C)CCCCCCCCCCCC(=O)N[C@H](CO)[C@H](O)c1ccc([N+](=O)[O-])cc1` [LCL464, (1R,2R)-2-[N-(12′-N,N-dimethylamino-dodecanoyl)-amino]-1-(4″-nitrophenyl)-1,3-propandiol], the “level of C18-Cer, % of control” value ([4]; 50 μM, at 24 hours) is reported as roughly 900%, the “level of C16-Cer (percentage of control)” value ([4]; 50 μM, early effect) is reported as roughly 240% and the “concentration at which elevation of C18-Cer was observed” value ([4]; 24 hours, dose range 0-50 μM) is reported as “above 20 μM”. For the same molecule, the “ACDase inhibition at the cellular level” value (acid ceramidase (ACDase) [2]) was 65%, the “lysosomal dysfunction (LYSOTRACKER Red fluorescence)” value (lysosomes [5]; 10 μM, 1 and 5 hours of treatment) was “did not cause lysosomal dysfunction” and the lysosomal stability (lysosomes [5]; 1 h) was 40%. For the same molecule, the lysosomal stability (lysosomes [5]; 5 h) was 61%, the lysosomal stability (lysosomes [5]; 24 h) was greater than 100% and the “inhibition of ACDase in vitro” value (acid ceramidase (ACDase) [6]; 50 μM inhibitor, [3H]C16-Cer substrate) was 55%. For the same molecule, the “Caspase 3/7 activities (percentage of control)” value (Caspase 3/7; 10 μM) was 140%, the “Caspase 3/7 activities (percentage of control)” value (Caspase 3/7; 20 μM) was 200% and the IC50 [3, 8] was 10.2 µM. It also gave an IC50 ([3]; 72 hr treatment, Example 6, read-out: IC50, MCF-7 cell growth) of 7.2 µM.
In the case of `CCCCCCCCCCCCCC(=O)N[C@H](COC(=O)CN(C)C)[C@H](OC(=O)CN(C)C)c1ccc([N+](=O)[O-])cc1.Cl` [LCL521, (1R,2R)-2-[N-tetradecanoyl)-amino]-1-(4″-nitrophenyl)-1,3-propandiol-1,3-O-bis-dimethylglycine hydrochloride], the IC50 [3, 9] is reported as ~8.9 µM and 8.9 µM, the IC50 ([3]; MCF-7 cells, MTT, 48 hours, Example 7, read-out: IC50/48 h) is reported as 8.67 µM and the IC50 ([3]; MCF-7 cells, MTT, 72 hours, Example 7, read-out: IC50/72 h) is reported as 7.45 µM.
With `CCCCCCCCCCCCCC(=O)N[C@H](COC(=O)CN(C)C)[C@H](OC(=O)CN(C)C)c1ccc([N+](=O)[O-])cc1.Cl` [LCL521] the “cellular level of Sph and S1P” value [4, 10] was “decreased”, the “levels of pro-apoptotic C16- and C18-Cer and total ceramide” value [4, 10] was “increased” and the “breakdown / metabolism of the prodrug” value [7] was “slowly metabolized to the mono-ester LCL581 and B13”. For the same molecule, the “delivery to the lysosomes (LYSOTRACKER Red fluorescence)” value (lysosomes [5]; 5 μM or 10 μM, 1 hour) was “appears to be delivered to the lysosomes” and the “effect on acid ceramidase activity in vitro” value (acid ceramidase (ACDase) [6]; concentration dependent (FIG. 13)) was “inhibited acid ceramidase in vitro”.
With `CCCCCCCCCCCCCC(=O)N[C@H](CO)[C@H](OC(=O)CN(C)C)c1ccc([N+](=O)[O-])cc1.Cl` [LCL522, (1R,2R)-2-[N-tetradecanoyl)-amino]-1-(4″-nitrophenyl)-1,3-propandiol-1-O-dimethylglycine hydrochloride] the IC50 [3, 9] was ~6.5 µM and 6.5 µM.
With `CCCCCCCCCCCCCC(=O)N[C@H](CO)[C@H](OC(=O)CN(C)C)c1ccc([N+](=O)[O-])cc1.Cl` [LCL522] the “regulation of cellular sphingolipids” value ([4]; 10 μM, 5 hours) was “behaved similarly to B13” and the “breakdown / metabolism of the prodrug” value [7] was “breaks down under the various assay conditions to form B13”.
